Test results published in US20070010574A1, “Use of a trpm8-activating substance for the treatment of tumours” (priority 2002, published 2007).

Experiments:
HEK293 TRPM8 cells = test: tumor growth in hairless mice; type: in vivo; conditions: male hairless mice, HEK293 TRPM8 cells subcutaneous or xenotransplanted in the prostate; 20 mg/kg daily intraperitoneal in DMSO, three weeks; vs untreated control animals
Protocol: Human TRPM8 cDNA was subcloned in the expression vector pcDNA3.1 and subsequently stably transfected in HEK293 cells. […] To study the effect of menthol or icilin on tumor growth in vivo 2 million HEK293 TRPM8 cells were subcutaneously injected or xenotransplanted in the prostate in male hairless mice. The test groups in each case consisted of 10 animals. The control groups were untreated or treated only with DMSO. The animals were treated by daily intraperitoneal administration of 20 mg/kg body weight icilin or menthol, dissolved in DMSO, over a time interval of three weeks. The growth of the subcutaneously injected cells was measured twice weekly over the entire test duration. Immediately after completion of the trials the “xenotransplants” were resected, weighed and preserved.

[1] = tested on: HEK293 cells transfected with TRPM8; test: soft agar assay, colony formation rate; type: cell-based; conditions: TRPM8 transfected HEK293 cells vs wild type and empty vector cells; menthol 10, 100, and 100 μM in medium, substituted every fifth day; after three weeks
Protocol: HEK293 cells were not transfected, transfected with TRPM8 or transfected with an empty vector. The cells were used in a soft agar assay (see reference Shappel et al., Cancer Research 61:497-503 (2001)). The cells highly individually plated out and immobilized in agar are caused to grow three-dimensionally and independently of the substrate in this way. The colony formation rate permits conclusions regarding the tumorigenicity of the cells to be drawn. 1000 cells were plated out in the 6-hole plate in 2 ml of medium containing soft agar and coated with 1 ml of medium (DMEM with 10% FCS, 2mM glutamine) after the agar congealed. Menthol dissolved in ethanol was added to the medium in end concentrations of 10, 100, and 100 μM and substituted every fifth day. The solvent alone was added as a control. After three weeks the number of colonies formed was determined under the microscope.

| SMILES | tumor growth (HEK293 TRPM8 cells) | number of colonies formed (colony formation rate) [1] |
| --- | --- | --- |
| O=C1NC(c2cccc([N+](=O)[O-])c2)=CCN1c1ccccc1O [icilin] | distinctly less tumor growth |  |
| CC1CCC(C(C)C)C(O)C1 (stereo not drawn) [menthol] | distinctly less tumor growth | distincly less colony formation |
